Read-outs that look alike come from different tables or passages of the source.
How the values were obtained:
[1] = tested on: thyroid hormone levels (T4); conditions: cited from earlier work; for EC50: read-out: EC50 T4 reduction
[2] = ref chemspider (http://www.chemspider.com); cited from earlier work
[3] = tested on: thyroglobulin (tg:mCherry reporter gene); experiment: animal or person; conditions: for EC50: read-out: EC50 (tg:mCherry induction)
Experimental: In order to avoid interference of test chemicals with early thyroid gland development, zebrafish embryos were cultured in exposure medium until 48 hours post fertilization (hpf). Subsequently, they were exposed to seven known thyroid endocrine disrupters for 3 days (48 to 120 hpf). The non-goitrogenic compound 3,4-dichloroaniline, that is used as reference compound in the zebrafish acute embryo toxicity test was used as negative control. […] No solvents were used. […] Five concentrations and one control were tested per compound and replicate. In the second replicate the range of concentration was adjusted to improve fitting of concentration-response curves. […] Given the lack of appropriate spectral properties stability of exposure concentrations was not analysed for potassium perchlorate. Embryos were kept in the incubator at 26°C and a 14:10 hours light:dark cycle. The exposure was conducted in crystallisation dishes covered with watchmaker glasses with 30 embryos in 30 ml exposure medium (for exposure medium refer to [26]).
Embryos were positioned ventrally toward the microscope objective. Per embryo a bright field image, an autofocus fluorescence image and a Z-stack of 9 images were obtained. The Z-stack was required in case of autofocus failure and manual selection of the focal plane. Fluorescence images were obtained with 400 ms of fluorescent light exposure at maximal light intensity and a gain of 1. […] However, care was taken, that at least 10 images per concentration and replicates were assessed. To avoid a time bias during the analysis the sequence of wells for analysis was arranged in order to obtain a uniform distribution over the entire period of analysis.
The images were analysed using a KNIME workflow (Version 3.3.3., [29]) with the extension “KNIME image processing”. In brief, images were loaded into the workflow and the background was removed automatically using the “rolling ball” procedure of the image J plugin (rolling ball size set to 50 pixels). Subsequently the area containing the thyroid gland was manually selected by drawing a rectangle around the appropriate region using the interactive annotation node. […] If possible the autofocus images were used. In case that the thyroid gland was out of focus due to the presence of autofluorescing pigment cells, an appropriate image from the Z-stack was selected. All subsequent steps were conducted without any user interaction. […] Finally the sum of pixel (reflecting area of the thyroid gland and intensity of fluorescence) was calculated for the labeled area and used as a proxy of fluorescence intensity (see Fig 1 for an overview of the workflow). For each replicate the sum was of pixels was normalized by setting controls to the value of one. For data of individual embryos see S4 Table. The KNIME workflow used for image analysis is provided as supplement file (S1 Workflow).
To characterize the potency of the investigated goitrogenic compounds, we calculated EC50 values of tg:mcherry fluorescence using the pixel sum obtained from image analysis. For each replicate the fluorescence intensity was normalized by dividing the mean fluorescence intensity of each concentration with the mean control fluorescence intensity. Concentration-response curves of tgmcherry fluorescence were fitted to the data using the Hill-slope equation (Eq 1) and used to estimate EC50 values.
The parameter Min was set to 1 and the slope (p) and the maximum fluorescence (Max) were estimated.

zebrafish embryos = experiment: in vivo; conditions: for Slope: mortality concentration-response curve
Experimental: Fish embryo acute toxicity tests were performed similar as described previously, using 10 or 25 embryos per concentration and replicate exposed in crystallization dishes from 48 to 120 hpf. No exchange of exposure media was performed. Lethality was identified by coagulation, missing heartbeat, a non–detached tail and/or missing of somites. Raw data for mortality and phenotypic assessment are provided as S1 Table. Concentration-response curves for mortality are shown in S2 Fig.

[4] = reduction of thyroid hormone levels (immunostaining), ref Thienpont et al. [13]
[5] = 72 hpf, 17777.78 µmol/L, replicate 2, 10 embryos
[6] = 72 hpf, 26666.67 µmol/L, replicate 2, 10 embryos
[7] = 72 hpf, 40000.00 µmol/L, replicate 2, 10 embryos
[8] = 72 hpf, 60000.00 µmol/L, replicate 2, 10 embryos
[9] = 72 hpf, 90000.00 µmol/L, replicate 2, 10 embryos
[10] = 96 hpf, 17777.78 µmol/L, replicate 2, 10 embryos
[11] = 96 hpf, 26666.67 µmol/L, replicate 2, 10 embryos
[12] = 96 hpf, 40000.00 µmol/L, replicate 2, 10 embryos
[13] = 96 hpf, 60000.00 µmol/L, replicate 2, 10 embryos
[14] = 96 hpf, 90000.00 µmol/L, replicate 2, 10 embryos
[15] = 120 hpf, 5625.00 µmol/L, replicate 1, 25 embryos
[16] = 120 hpf, 11250.00 µmol/L, replicate 1, 25 embryos
[17] = 120 hpf, 17777.78 µmol/L, replicate 2, 10 embryos
[18] = 120 hpf, 22500.00 µmol/L, replicate 1, 25 embryos
[19] = 120 hpf, 26666.67 µmol/L, replicate 2, 10 embryos
[20] = 120 hpf, 40000.00 µmol/L, replicate 2, 10 embryos
[21] = 120 hpf, 45000.00 µmol/L, replicate 1, 25 embryos
[22] = 120 hpf, 60000.00 µmol/L, replicate 2, 10 embryos
[23] = 120 hpf, 90000.00 µmol/L, replicate 1, 25 embryos
[24] = 120 hpf, 90000.00 µmol/L, replicate 2, 10 embryos

S=C1NCCN1 [Ethylenethiourea, N, N’-ethylenethiourea]
EC50 [1, 4]: 135 µM | Log D (pH 7.4) [2]: -0.52 | EC50 ([3]; Danio rerio): 366 µM | BMD 20 ([3]; zebrafish, in vivo): 246 µM | Slope ([3]; zebrafish, in vivo): 3.8

Oc1cc(O)cc(O)c1 [Phloroglucinol, phloroglucinol]
EC50 [1, 4]: 2700 µM | TDI (T4) ([1]; thyroid disruption index based on T4 reduction, ref Thienpont et al. [13]): 32 | Log D (pH 7.4) [2]: 0.24 | EC50 ([3]; Danio rerio): 1100 µM | BMD 20 ([3]; zebrafish, in vivo): 252 µM | Slope ([3]; zebrafish, in vivo): 0.89

CCCc1cc(=O)[nH]c(=S)[nH]1 [Propylthiouracil, 6-propyl-2-thiouracil]
EC50 ([1]; zebrafish, in vivo): 137 µM | TDI (T4) ([1]; zebrafish, in vivo): 20 | EC50 ([3]; Danio rerio): 334 µM | BMD 20 ([3]; zebrafish, in vivo): 163 µM | Slope ([3]; zebrafish, in vivo): 1.7

c1cn[nH]c1 [Pyrazole, pyrazole]
Log D (pH 7.4) [2]: 0.43 | No Surviving (zebrafish embryos; [5]): 10 | No hatched (zebrafish embryos; [5]): 0 | No Surviving (zebrafish embryos; [6]): 10 | No hatched (zebrafish embryos; [6]): 0 | No Surviving (zebrafish embryos; [7]): 10 | No hatched (zebrafish embryos; [7]): 0 | Total Sublethal (zebrafish embryos; [7]): 3 | nobc (no blood circulation) (zebrafish embryos; [7]): 3 | No Surviving (zebrafish embryos; [8]): 0 | No hatched (zebrafish embryos; [8]): 0 | nohb (no heartbeat) (zebrafish embryos; [8]): 10 | No Surviving (zebrafish embryos; [9]): 0 | No hatched (zebrafish embryos; [9]): 0 | nohb (no heartbeat) (zebrafish embryos; [9]): 10 | No Surviving (zebrafish embryos; [10]): 10 | No hatched (zebrafish embryos; [10]): 10 | No Surviving (zebrafish embryos; [11]): 10 | No hatched (zebrafish embryos; [11]): 8 | No Surviving (zebrafish embryos; [12]): 10 | No hatched (zebrafish embryos; [12]): 9 | Total Sublethal (zebrafish embryos; [12]): 10 | nomov (no spontaneous movement) (zebrafish embryos; [12]): 10 | No Surviving (zebrafish embryos; [13]): 0 | No hatched (zebrafish embryos; [13]): 0 | k/f (coagulated) (zebrafish embryos; [13]): 5 | nohb (no heartbeat) (zebrafish embryos; [13]): 5 | No Surviving (zebrafish embryos; [14]): 0 | No hatched (zebrafish embryos; [14]): 0 | k/f (coagulated) (zebrafish embryos; [14]): 10 | No Surviving (zebrafish embryos; [15]): 25 | Sublethal effects Total Sublethal (zebrafish embryos; [15]): 1 | No Surviving (zebrafish embryos; [16]): 25 | Sublethal effects Total Sublethal (zebrafish embryos; [16]): 1 | No Surviving (zebrafish embryos; [17]): 10 | No hatched (zebrafish embryos; [17]): 10 | Lethal effects k/f (zebrafish embryos; [18]): 2 | No Surviving (zebrafish embryos; [18]): 23 | Sublethal effects Total Sublethal (zebrafish embryos; [18]): 12 | No Surviving (zebrafish embryos; [19]): 10 | No hatched (zebrafish embryos; [19]): 9 | Sublethal effects Total Sublethal (zebrafish embryos; [19]): 4 | Sublethal effects mch (zebrafish embryos; [19]): 1 | Sublethal effects nomov (zebrafish embryos; [19]): 4 | No Surviving (zebrafish embryos; [20]): 10 | No hatched (zebrafish embryos; [20]): 9 | Sublethal effects EdY / EdP (zebrafish embryos; [20]): 9 | Sublethal effects Total Sublethal (zebrafish embryos; [20]): 10 | Sublethal effects nobc (zebrafish embryos; [20]): 4 | Sublethal effects nomov (zebrafish embryos; [20]): 8 | Lethal effects k/f (zebrafish embryos; [21]): 25 | No Surviving (zebrafish embryos; [21]): 0 | Lethal effects k/f (zebrafish embryos; [22]): 10 | No Surviving (zebrafish embryos; [22]): 0 | No hatched (zebrafish embryos; [22]): 0 | Lethal effects k/f (zebrafish embryos; [23]): 25 | No Surviving (zebrafish embryos; [23]): 0 | Lethal effects k/f (zebrafish embryos; [24]): 10 | No Surviving (zebrafish embryos; [24]): 0 | No hatched (zebrafish embryos; [24]): 0 | LC50 (zebrafish embryos; mortality after 24 h of exposure, S2 Fig, unit inferred): 48.9 mM | LC50 (zebrafish embryos; mortality after 48 h of exposure, S2 Fig, unit inferred): 48.9 mM | Slope (zebrafish embryos; 24 h of exposure): 56.2 | Slope (zebrafish embryos; 48 h of exposure): 56.2 | Slope (zebrafish embryos; 72 h of exposure): 132 | LC50 (zebrafish embryos; read-out: LC50 (48–120 hpf), mortality, embryos exposed 48–120 hpf): 42.4 mM | EC50 ([3]; zebrafish, in vivo): 637 µM | BMD 20 ([3]; zebrafish, in vivo): 399 µM | Slope ([3]; zebrafish, in vivo): 5.7 | TDI ([3]; zebrafish, in vivo): 67

Reference: article PMC6114901, “An automated screening method for detecting compounds with goitrogenic activity using transgenic zebrafish embryos” (PLoS ONE, 2018)
